# Measurements from patent US20100168084A1, “Therapeutic compounds and related methods of use” (priority 2008, published 2010).
# Read-outs that look alike come from different tables or passages of the source.
# Key:
# [1] = system: HDAC; details: literature statements; cited from earlier work
# [2] = system: sirtuin protein; assay: FP assay (IC50 FP ASSAY / ED50 FP); format: biochemical; details: Table 4
# [3] = target: T1, sirtuin protein (Homo sapiens, UniProt Q96EB6); assay: MS assay (IC50 MS ASSAY / ED50 MS / FOLD ACTIVATION MS); format: biochemical; design: scale not given here
# T1 sequence (Q96EB6 2-747 limits assumed): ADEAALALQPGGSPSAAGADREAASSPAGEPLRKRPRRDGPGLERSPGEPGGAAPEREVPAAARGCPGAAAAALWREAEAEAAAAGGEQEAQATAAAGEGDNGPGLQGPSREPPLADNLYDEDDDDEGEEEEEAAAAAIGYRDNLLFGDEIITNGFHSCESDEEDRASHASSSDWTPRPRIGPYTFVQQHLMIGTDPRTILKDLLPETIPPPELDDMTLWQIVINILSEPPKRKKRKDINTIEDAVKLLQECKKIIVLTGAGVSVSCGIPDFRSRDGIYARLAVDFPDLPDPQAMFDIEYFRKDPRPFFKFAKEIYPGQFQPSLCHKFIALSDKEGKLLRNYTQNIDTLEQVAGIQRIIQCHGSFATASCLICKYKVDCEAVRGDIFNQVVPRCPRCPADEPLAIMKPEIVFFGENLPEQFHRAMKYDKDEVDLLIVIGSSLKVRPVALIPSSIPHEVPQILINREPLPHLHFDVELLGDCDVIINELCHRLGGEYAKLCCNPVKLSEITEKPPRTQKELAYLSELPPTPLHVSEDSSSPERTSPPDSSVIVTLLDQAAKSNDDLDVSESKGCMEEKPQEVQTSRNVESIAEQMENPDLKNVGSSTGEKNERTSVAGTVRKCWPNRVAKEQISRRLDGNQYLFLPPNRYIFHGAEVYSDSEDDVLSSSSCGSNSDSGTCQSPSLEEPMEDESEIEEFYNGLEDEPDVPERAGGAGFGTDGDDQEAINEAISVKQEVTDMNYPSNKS
# [4] = target: cytochrome oxidase (Complex IV) (Homo sapiens, UniProt P00395); details: cited from earlier work
# [5] = topical; cited from earlier work
# [6] = MS assay, class symbols, key not given
# [7] = Table 4, class symbols A′, A, B, C, NA, legend not given
Molecule,inhibition of HDAC [1],ED50 MS ASSAY [3],"ED50 MS ASSAY [3, 6]",ED50 MS ASSAY ([3]; TABLE 4),ED50 MS ASSAY ([3]; Table 4),"ED50 MS ASSAY [3, 7]",other results
"O=C(/C=C/c1cccc(C(=O)NO)c1)NO [CBHA, m-carboxy-cinnamic acid bishydroxamic acid]",inhibit HDAC at micromolar concentration or lower,,,,,,
O=C1CN(Cc2csc3nc(-c4ccccc4NC(=O)c4cnc5ccccc5n4)cn23)CCN1 [Compound 677],,A′,,,,,"ED50 FP ASSAY [2]: A′; ED50 MS ASSAY ([3]; Table 4, class symbols): A′; ED50 MS ASSAY ([3]; Table 4, class symbols A′, A, B, D, NA, legend not given): A′; ED50 MS ASSAY ([3]; class symbols (A′, A, B, D, NA), no legend given): A′"
COc1cc(C(=O)Nc2ccccc2-c2cn3c(C)csc3n2)cc(OC)c1OC [Compound 739],,A′,A′,A′,A′,A′,
Cc1csc2nc(-c3ccccc3NC(=O)c3cccc(N(C)C)c3)cn12 [Compound 740],,A′,A′,A′,A′,A′,
CN1CCN(Cc2csc3nc(-c4ccccc4NC(=O)c4cnc5ccccc5n4)cn23)C(=O)C1 [Compound 741],,A′,A′,A′,A′,A′,
O=C(Nc1ccccc1-c1cn2c(CN3CCSCC3)csc2n1)c1cnc2ccccc2n1 [Compound 742],,A′,A′,A′,A′,A′,
O=C(Nc1ccccc1-c1cn2c(Cn3ccnc3)csc2n1)c1cnc2ccccc2n1 [Compound 745],,A′,A′,A′,A′,A′,
"C/C=C1\NC(=O)[C@H]2CSSCC/C=C/[C@H](CC(=O)N[C@H](C(C)C)C(=O)N2)OC(=O)[C@H](C(C)C)NC1=O [Depsipeptide, depsipeptide]",inhibit HDAC activity at micromolar concentrations,,,,,,
[N]=O [Nitric oxide],,,,,,,concentration that inhibits cytochrome oxidase (Complex IV) [4]: about 1 micromolar
CC(C)(C)NC[C@H](O)COc1nsnc1N1CCOCC1 [timolol],,,,,,,time for IOP to fall [5]: 30 min; time of peak effects on IOP [5]: 1 to 2 h
depudecin,inhibit HDAC at micromolar concentrations,,,,,,
trichostatin A [TSA],potent inhibitor of mammalian HDAC,,,,,,
